# Measured values from patent publication EP2100894A1, “Pyridopyrimidines used as Plk1 (polo-like kinase) inhibitors” (4SC AG, priority 2008, dated 2009).
# Target: T1, PIk1 (Homo sapiens, UniProt P53350)
# T1 construct: His tag (histidine tag) (N); made in house; host or cells: SF9 insect cells
# Assay: PIk1 kinase activity inhibition assay (33P incorporation into alpha casein, flash plates)
# Format: biochemical
# Conditions: recombinant N-terminally histidine-tagged PIk1, alpha casein as substrate, 100 nM Li-ATP, 80 minutes at 30°C
# Experimental: The inhibition of PIk1 kinase activity can be measured using recombinant PIk1 protein expressed as an N-terminally histidine-tagged protein in SF9 insect cells and alpha casein as substrate. The PIk1 assay is run in 96 well plates by incubating 50 to 100 ng per well recombinant PIk1, 500 ng per well alpha casein (Sigma, # C-6780) as substrate, 10 µl of compound of invention (test compounds were dissolved as 20 mM solutions in dimethylsulfoxide (DMSO) and subsequently diluted), and 100 nM Li-ATP (including ^33P-ATP) in 100 µl of reaction buffer ([…], pH 7.5; 3 mM MgCl2; 3 mM MnCl2; 3 µM Na-Orthovanadat; 1 mM DTT; 1 µg/ml PEG 8000) for 80 minutes at 30°C. The reactions are terminated by adding 100 µl stopping buffer (2% H3PO4 for 5 minutes) and are washed 3 times with washing solution (0,9% NaCl). Determining ^33P incorporated into the protein substrate alpha casein, the detection is based on the adhesion of the phosphorylated protein to the surface of scintillator-coated flash plates (Perkin Elmer, USA; # SMP-200). Phosphorylation of alpha casein is measured by counting the radioactivity bound to the plate for 60 sec. using a plate reader (Perkin Elmer, USA; Wallac Microbeta). By this method, the IC50 value of the PIk1 inhibition is determined as described above. […]
# T1 sequence (P53350 whole entry): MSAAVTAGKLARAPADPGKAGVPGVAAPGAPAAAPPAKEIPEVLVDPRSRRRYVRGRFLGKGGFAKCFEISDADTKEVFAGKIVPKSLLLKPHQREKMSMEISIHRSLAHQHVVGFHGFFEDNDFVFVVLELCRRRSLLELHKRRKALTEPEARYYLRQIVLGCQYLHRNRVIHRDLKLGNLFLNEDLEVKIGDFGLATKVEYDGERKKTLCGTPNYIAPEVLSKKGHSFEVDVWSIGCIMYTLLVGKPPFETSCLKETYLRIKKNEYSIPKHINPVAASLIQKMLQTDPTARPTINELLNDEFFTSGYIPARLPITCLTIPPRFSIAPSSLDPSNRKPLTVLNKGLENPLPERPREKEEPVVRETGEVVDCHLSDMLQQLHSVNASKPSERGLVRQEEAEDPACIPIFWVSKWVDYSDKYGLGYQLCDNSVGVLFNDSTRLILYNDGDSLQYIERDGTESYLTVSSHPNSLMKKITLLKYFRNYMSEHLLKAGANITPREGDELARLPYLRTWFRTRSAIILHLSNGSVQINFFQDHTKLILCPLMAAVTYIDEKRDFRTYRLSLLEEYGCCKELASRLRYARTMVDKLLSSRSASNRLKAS
row,SMILES,IC50 [nM]
1,"COc1cc(C(=O)NC2CCN(C)CC2)ccc1Nc1ncc2c(cc(OCc3ccccc3)c(=O)n2C)n1 [Example 1, 4-{[7-(benzyloxy)-5-methyl-6-oxo-5,6-dihydropyrido[3,2-d]pyrimidin-2-yl]amino}-3-methoxy-N-(1-methylpiperidin-4-yl)benzamide]",< 1000
2,"C/C=C/c1c(OC)c(=O)n(C)c2cnc(Nc3ccc(C(=O)NC4CCN(C)CC4)cc3OC)nc12 [Example 2, 3-methoxy-4-({7-methoxy-5-methyl-6-oxo-8-[(E)-prop-1-en-1-yl]-5,6-dihydropyrido[3,2-d]pyrimidin-2-yl}amino)-N-(1-methylpiperidin-4-yl)benzamide]",< 100
3,"COc1cc(C(=O)NC2CCN(C)CC2)ccc1Nc1ncc2c(n1)c(-c1ccccc1)c(OC)c(=O)n2C [Example 3, 3-methoxy-4-[(7-methoxy-5-methyl-6-oxo-8-phenyl-5,6-dihydropyrido[3,2-d]pyrimidin-2-yl)amino]-N-(1-methylpiperidin-4-yl)benzamide]",< 100
4,"COc1cc(C(=O)NC2CCN(C)CC2)ccc1Nc1ncc2c(n1)c(-c1ccsc1)c(OC)c(=O)n2C [Example 4, 3-methoxy-4-{[7-methoxy-5-methyl-6-oxo-8-(3-thienyl)-5,6-dihydro-pyrido[3,2-d]pyrimidin-2-yl]amino}-N-(1-methylpiperidin-4-yl)benzamide]",< 10
5,"COc1cc(C(=O)NC2CCN(C)CC2)ccc1Nc1ncc2c(n1)c(C1=CCCC1)c(OC)c(=O)n2C [Example 6, 4-[(8-cyclopent-1-en-1-yl-7-methoxy-5-methyl-6-oxo-5,6-dihydropyrido[3,2-d]pyrimidin-2-yl)amino]-3-methoxy-N-(1-methylpiperidin-4-yl)benzamide]",< 100
6,"COc1cc(C(=O)NC2CCN(C)CC2)ccc1Nc1ncc2c(cc(OCC3CCCCC3)c(=O)n2C)n1 [Example 9, 4-{[7-(cyclohexylmethoxy)-5-methyl-6-oxo-5,6-dihydropyrido[3,2-d]pyrimidin-2-yl]amino}-3-methoxy-N-(1-methylpiperidin-4-yl)benzamide]",< 1000
7,"COc1cc(C(=O)NC2CCN(C)CC2)ccc1Nc1ncc2c(cc(OCC3CCCO3)c(=O)n2C)n1 (centres unmarked) [Example 13, 3-methoxy-4-{[5-methyl-6-oxo-7-(tetrahydrofuran-2-ylmethoxy)-5,6-dihydropyrido[3,2-d]pyrimidin-2-yl]amino}-N-(1-methylpiperidin-4-yl)benzamide]",< 1000
8,"COc1cc(C(=O)NC2CCN(C)CC2)ccc1Nc1ncc2c(n1)c(C1=C(C)CCC1)c(OC)c(=O)n2C [Example 15, 3-methoxy-4-{[7-methoxy-5-methyl-8-(2-methylcyclopent-1-en-1-yl)-6-oxo-5,6-dihydropyrido[3,2-d]pyrimidin-2-yl]amino}-N-(1-methylpiperidin-4-yl)benzamide]",< 1000
9,"C/C=C/c1c(OCC)c(=O)n(C)c2cnc(Nc3ccc(C(=O)NC4CCN(C)CC4)cc3OC)nc12 [Example 18, 4-({7-ethoxy-5-methyl-6-oxo-8-[(1E)-prop-1-en-1-yl]-5,6-dihydropyrido[3,2-d]pyrimidin-2-yl}amino)-3-methoxy-N-(1-methylpiperidin-4-yl)benzamide]",< 100
10,"COc1cc(C(=O)NC2CCN(C)CC2)ccc1Nc1ncc2c(n1)c(C1CC1)c(OC)c(=O)n2C [Example 19, 4-[(8-cyclopropyl-7-methoxy-5-methyl-6-oxo-5,6-dihydropyrido[3,2-d]pyrimidin-2-yl)amino]-3-methoxy-N-(1-methylpiperidin-4-yl)benzamide]",< 100
11,"C/C=C/c1c(OC)c(=O)n(C)c2cnc(Nc3ccc(C(=O)NCc4cncn4C)cc3OC)nc12 [Example 20, 3-methoxy-4-({7-methoxy-5-methyl-6-oxo-8-[(1E)-prop-1-en-1-yl]-5,6-dihydropyrido[3,2-d]pyrimidin-2-yl}amino)-N-[(1-methyl-1H-imidazol-5-yl)methyl]benzamide]",< 100
12,"COc1cc(C(=O)NC2CCN(C)CC2)ccc1Nc1ncc2c(cc(OC)c(=O)n2C)n1 [Example 21, 3-methoxy-4-[(7-methoxy-5-methyl-6-oxo-5,6-dihydropyrido[3,2-d]pyrimidin-2-yl)amino]-N-(1-methylpiperidin-4-yl)benzamide]",< 1000
13,"C=C(C)c1c(OC)c(=O)n(C)c2cnc(Nc3ccc(C(=O)NC4CCN(C)CC4)cc3OC)nc12 [Example 22, 4-[(8-isopropenyl-7-methoxy-5-methyl-6-oxo-5,6-dihydropyrido[3,2-d]pyrimidin-2-yl)amino]-3-methoxy-N-(1-methylpiperidin-4-yl)benzamide]",< 100
14,"C/C=C/c1c(OC)c(=O)n(C)c2cnc(Nc3ccc(C(=O)NCC4CCN(C)CC4)cc3OC)nc12 [Example 26, 3-methoxy-4-({7-methoxy-5-methyl-6-oxo-8-[(1E)-prop-1-en-1-yl]-5,6-dihydropyrido[3,2-d]pyrimidin-2-yl}amino)-N-[(1-methylpiperidin-4-yl)methyl]benzamide]",< 100

# Second part, the compound after the results:
row,IC50 [nM],SMILES
1,< 100,"COc1cc(C(=O)NC2CCN(C)CC2)ccc1Nc1ncc2c(n1)c(-c1cccs1)c(OC)c(=O)n2C [Example 5, 3-methoxy-4-{[7-methoxy-5-methyl-6-oxo-8-(2-thienyl)-5,6-dihydro-pyrido[3,2-d]pyrimidin-2-yl]amino}-N-(1-methylpiperidin-4-yl)benzamide]"
2,< 100,"COc1cc(C(=O)NC2CCN(C)CC2)ccc1Nc1ncc2c(cc(OCC3CC3)c(=O)n2C)n1 [Example 7, 4-{[7-(cyclopropylmethoxy)-5-methyl-6-oxo-5,6-dihydropyrido[3,2-d]pyrimidin-2-yl]amino}-3-methoxy-N-(1-methylpiperidin-4-yl)benzamide]"
3,< 100,"COc1cc(C(=O)NC2CCN(C)CC2)ccc1Nc1ncc2c(cc(OCC3CCCC3)c(=O)n2C)n1 [Example 8, 4-{[7-(cyclopentylmethoxy)-5-methyl-6-oxo-5,6-dihydropyrido[3,2-d]pyrimidin-2-yl]amino}-3-methoxy-N-(1-methylpiperidin-4-yl)benzamide]"
4,< 100,"COc1cc(C(=O)NC2CCN(C)CC2)ccc1Nc1ncc2c(n1)c(-c1ccco1)c(OC)c(=O)n2C [Example 10, 4-{[8-(2-furyl)-7-methoxy-5-methyl-6-oxo-5,6-dihydropyrido[3,2-d]pyrimidin-2-yl]amino}-3-methoxy-N-(1-methylpiperidin-4-yl)benzamide]"
5,< 100,"COc1cc(C(=O)NC2CCN(C)CC2)ccc1Nc1ncc2c(n1)c(-c1ccoc1)c(OC)c(=O)n2C [Example 11, 4-{[8-(3-furyl)-7-methoxy-5-methyl-6-oxo-5,6-dihydropyrido[3,2-d]pyrimidin-2-yl]amino}-3-methoxy-N-(1-methylpiperidin-4-yl)benzamide]"
6,< 1000,"COc1cc(C(=O)NC2CCN(C)CC2)ccc1Nc1ncc2c(cc(OCC3CCOC3)c(=O)n2C)n1 (centres unmarked) [Example 12, 3-methoxy-4-{[5-methyl-6-oxo-7-(tetrahydrofuran-3-ylmethoxy)-5,6-dihydropyrido[3,2-d]pyrimidin-2-yl]amino}-N-(1-methylpiperidin-4-yl)benzamide]"
7,< 100,"COc1cc(C(=O)NC2CCN(C)CC2)ccc1Nc1ncc2c(n1)c(C1CCCC1)c(OC)c(=O)n2C [Example 14, 4-[(8-cyclopentyl-7-methoxy-5-methyl-6-oxo-5,6-dihydropyrido[3,2-d]pyrimidin-2-yl)amino]-3-methoxy-N-(1-methylpiperidin-4-yl)benzamide]"
8,< 1000,"COc1cc(C(=O)NC2CCN(C)CC2)ccc1Nc1ncc2c(n1)c(Cl)c(OC)c(=O)n2C [Example 16, 4-[(8-chloro-7-methoxy-5-methyl-6-oxo-5,6-dihydropyrido[3,2-d]pyrimidin-2-yl)amino]-3-methoxy-N-(1-methylpiperidin-4-yl)benzamide]"
9,< 1000,"COc1cc(C(=O)NC2CCN(C)CC2)ccc1Nc1ncc2c(n1)c(C1=C(C)CCCC1)c(OC)c(=O)n2C [Example 17, 3-methoxy-4-{[7-methoxy-5-methyl-8-(2-methylcyclohex-1-en-1-yl)-6-oxo-5,6-dihydropyrido[3,2-d]pyrimidin-2-yl]amino}-N-(1-methylpiperidin-4-yl)benzamide]"
10,< 1000,"COc1cc(C(=O)NC2CCN(C)CC2)ccc1Nc1ncc2c(n1)c(CC1=CCOC1)c(OC)c(=O)n2C [Example 23, 4-{[8-(2,5-dihydrofuran-3-ylmethyl)-7-methoxy-5-methyl-6-oxo-5,6-dihydropyrido[3,2-d]pyrimidin-2-yl]amino}-3-methoxy-N-(1-methylpiperidin-4-yl)benzamide]"
11,< 1000,"COc1cc(C(=O)NC2CCN(C)CC2)ccc1Nc1ncc2c(n1)c(C(C)C)c(OC)c(=O)n2C [Example 24, 4-[(8-isopropyl-7-methoxy-5-methyl-6-oxo-5,6-dihydropyrido[3,2-d]pyrimidin-2-yl)amino]-3-methoxy-N-(1-methylpiperidin-4-yl)benzamide]"
12,< 1000,"C/C=C/c1c(OC)c(=O)n(C)c2cnc(Nc3ccc(C(=O)NC4CCN(CC)CC4)cc3OC)nc12 [Example 25, N-(1-ethylpiperidin-4-yl)-3-methoxy-4-({7-methoxy-5-methyl-6-oxo-8-[(1E)-prop-1-en-1-yl]-5,6-dihydropyrido[3,2-d]pyrimidin-2-yl}amino)benzamide]"
